Values joined by “and” are separate entries in the source; they are usually repeats but may differ in a detail not shown here. Equal values may be shown once.
Key:
[1] = cited from earlier work
[2] = after cis-platin, ref Vermorken et al., cited from earlier work
[3] = parameters: method as in Schurig et al., 1984; settings: ferret, preclinical; ref Schurig et al., 1984; cited from earlier work
[4] = human, in vivo
Description: Br. J. Cancer (1987), 56, 479-483 ? The Macmillan Press Ltd., 1987 Pharmacokinetics of ethylenediaminemalonatoplatinum(II) (JM-40) during phase I trial F. Elferink1, W.J.F. van der Vijgh1, W.W. ten Bokkel Huinink2, J.B. Vermorken', I. Klein1, B. Winograd', M.K.T. Knobf', G. Simonetti2, H.E. Gall', J.G. McVie2 & H.M. Pinedo' 1Department of Oncology, Free University Hospital, De Boelelaan 1117, 1081 HV Amsterdam; and 2Netherlands Cancer Institute, Antoni van Leeuwenhoek Hospital, Plesmanlaan 121, 1066 CX Amsterdam, The Netherlands. […] The drug was administered intravenously by short-term (10-60min) infusion. Doses ranged from 20 to 1,200 mgm-2. JM-40 was determined in plasma ultrafiltrate and urine by HPLC. Platinum (Pt) concentrations were determined in plasma, plasma ultrafiltrate, urine and red blood cells by atomic absorption spectrometry up to 5 days after administration of the drug. Ultrafilterable Pt could be determined up to 45 days after the infusion in one patient sampled over such a long period. […] During the first 6h 27+9% of the administered dose was excreted as JM-40. Cumulative platinum excretion in the urine amounted to 29+ 13%, 42+ 14% and 60+13% over the first 6h, 24h and 5 days, respectively. The uptake of platinum in red blood cells was limited, comprising only 0.24+0.12% of the administered dose. […] In particular the low emetogenic potential as determined in the ferret (Schurig et al., 1984) and the limited nephrotoxicity observed in dogs (Lelieveld et al., 1984) were reasons to conduct a phase I trial. […] Investigation of the pharmacokinetics during phase I clinical trials is important because it may help to design an optimal therapeutic regimen in phase II trials (Kovach, 1983). In the case of an analogue, pharmacokinetics can be compared with that of the parent compound. Furthermore, when preclinical information on animal pharmacokinetics is available human pharmacokinetics at low doses of the phase I trial may aid in escalating the dose as quickly and safely as possible (Collins et al., 1986, Van Hennik et al. 1987). Thus, clinical pharmacokinetics of JM-40 and platinum were investigated in plasma, plasma ultrafiltrate, urine and red blood cells. Figure 1 Structural platinum(II) (JM-40). formula of ethylenediaminemalonato- Patients and methods Patients and materials Pharmacokinetic studies were performed in 19 patients who received 28 cycles of JM-40 within a dose range of 20- 1,200mgm-2. The median age of the patients (6 females, 13 males) was 57 yrs (range 37-74 yrs). […] Renal function was decreased (creatinine clearance <60mlmin-1) at the start of only 3 treatment cycles. […] JM-40 was supplied by Johnson Matthey, Reading, Berkshire, UK. […]

[5] = parameters: method as in Lelieveld et al., 1984; settings: dogs, preclinical; ref Lelieveld et al., 1984; cited from earlier work
[6] = system: plasma proteins; parameters: method as in Van der Vijgh et al., 1986; settings: ref Van der Vijgh et al., 1986; cited from earlier work

N.N.O=C([O-])C1(C(=O)[O-])CCC1.[Pt+2] [carboplatin, diammine( 1, l-cyclobutanedicarboxylato)platinum(II), reference compound]
dose limiting toxicity ([1]; ref Joss et al., 1984): myelotoxicity

N.N.[Cl][Pt][Cl] [cis-platin, cis-diammine-dichloroplatinum(II)]
CUE 0-6h of free Pt ([2]; 1984b): 24+5 %D
CUE 0-24h of free Pt [2]; 1986: 28+4 %D

ethylenediaminemalonatoplatinum(II) [JM-40]
emetogenic potential [3]: low
cumulative urinary excretion after 24 h, as Pt [4]: 42+14%
dose m-2 vs AUC relation [4]: linear pharmacokinetics
half-life of Pt in RBCs over day 1-5 [4]: 14 + 3 days
time of maximum Pt levels in RBCs after start of infusion [4]: 2 to 8 h
maximum tolerable dose ([1]; in vivo): 1,200 mg m-2
nephrotoxicity [5]: limited
in vitro rate constant of plasma protein binding (k in vitro of free Pt) [6]: 0.002 min⁻¹ and 0.0020 min⁻¹
